Source: the NIST ThermoML archive (doi:10.1016/j.jct.2019.04.005)
Numbers after ± are expanded uncertainties.

Columns and labels:
[1] = refractive index (Na D-line) (dimensionless); conditions: 298.2 K; 101.33 kPa; Liquid; Standard Abbe refractometry
[2] = 298.2 K; 101.33 kPa; Liquid; Vibrating tube method
[3] = refractive index (Na D-line) (dimensionless); wn = mass fraction of the nth substance listed; conditions: 298.2 K; 100 kPa; Liquid; Standard Abbe refractometry; w1 = 0.85
[4] = wn = mass fraction of the nth substance listed; conditions: 298.2 K; 100 kPa; Liquid; Vibrating tube method; w1 = 0.85

SMILES | refractive index [1] | mass density [2] | refractive index [3] | mass density [4]
CC(C)CC(C)O (configuration not stated) [4-methyl-2-pentanol] | 1.4101 ± 0.003 | 803.77 ± 2.1 kg/m3 |  | 
O [water] | 1.3325 ± 0.003 |  |  | 
O=P(O)(O)O [phosphoric acid] + O |  |  | 1.432 ± 0.003 | 1682.7 ± 2.2 kg/m3
CCCC(C)O (configuration not stated) [pentan-2-ol] | 1.4049 ± 0.003 | 805.3 ± 2.1 kg/m3 |  | 
